Test results: patent US20200078468A1, “NEUROTENSIN RECEPTOR BINDING CONJUGATES AND FORMULATIONS THEREOF” (priority 2016, published 2020)
Read-outs that look alike come from different tables or passages of the source. Numbered stars: 1 amine (or outer) side, 2 acyl side, 3 side chain; on linkers, the order of the positions; unused ones are H or OH. Bridge positions count the residues as written; N and C are the ends. Square brackets hold non-standard residues; d marks the D form. Peptide text beside a SMILES is read from it. I, II: the chains in the order shown. * marks the point of attachment. MMAE(N-CO2CH2CH2S) = CC[C@H](C)[C@@H]([C@@H](CC(=O)N1CCC[C@H]1[C@H](OC)[C@@H](C)C(=O)N[C@H](C)[C@@H](O)c1ccccc1)OC)N(C)C(=O)[C@@H](NC(=O)[C@H](C(C)C)N(C)C(=O)OCCS*)C(C)C; Propanoyl(3-SS-DM1) = COc1cc2cc(c1Cl)N(C)C(=O)C[C@H](OC(=O)[C@H](C)N(C)C(=O)CCSSCCC(=O)*)[C@]1(C)O[C@H]1[C@H](C)[C@@H]1C[C@@](O)(NC(=O)O1)[C@H](OC)/C=C/C=C(\C)C2; Hexanoyl(6-succinimido-3yl) = O=C1CC([*:1])C(=O)N1CCCCCC(=O)[*:2]; Dolaproine = CO[C@@H]([C@@H]1CCCN1)[C@@H](C)C(=O)O; Dil = CC[C@H](C)[C@H](NC)[C@@H](CC(=O)O)OC; PABC = O=C(OCc1ccc(N[*:1])cc1)[*:2]; NMeR = CN[C@@H](CCCNC(=N)N)C(=O)O; X1 = C[C@@H](N*)[C@@H](O)c1ccccc1; Cit = NC(=O)NCCC[C@H](N)C(=O)O; Pen = CC(C)(S)[C@H](N)C(=O)O; Tle = CC(C)(C)[C@H](N)C(=O)O; NMeV = CN[C@H](C(=O)O)C(C)C

Tests used:
[1] = system: SW48 (human colon cancer cells); assay: inhibition of SW48 cell proliferation (CellTiter Glo); type: cell-based; conditions: 72 hrs, read-out: SW-48 proliferation IC50
Procedure, shortened: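 Cells plated at 5,000/well and grown 24 hrs were exposed to conjugates for 72 hrs at 37° C, 5% CO2, in a ten-point three-fold series starting at 10 μM; vehicle was 0.01% DMSO. Proliferation was read by CellTiter Glo. % inhibition was taken relative to vehicle, with IC50 from four-parameter nonlinear regression.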

human NTSR1 = target: T1, human NTSR1 (Homo sapiens, UniProt P30989); assay: radioligand-receptor binding assay, [125I] labeled neurotensin (Eurofins Panlabs)
T1 construct: host or cells: HEK-293 cells (membrane preparations)
T1 sequence (P30989 whole entry): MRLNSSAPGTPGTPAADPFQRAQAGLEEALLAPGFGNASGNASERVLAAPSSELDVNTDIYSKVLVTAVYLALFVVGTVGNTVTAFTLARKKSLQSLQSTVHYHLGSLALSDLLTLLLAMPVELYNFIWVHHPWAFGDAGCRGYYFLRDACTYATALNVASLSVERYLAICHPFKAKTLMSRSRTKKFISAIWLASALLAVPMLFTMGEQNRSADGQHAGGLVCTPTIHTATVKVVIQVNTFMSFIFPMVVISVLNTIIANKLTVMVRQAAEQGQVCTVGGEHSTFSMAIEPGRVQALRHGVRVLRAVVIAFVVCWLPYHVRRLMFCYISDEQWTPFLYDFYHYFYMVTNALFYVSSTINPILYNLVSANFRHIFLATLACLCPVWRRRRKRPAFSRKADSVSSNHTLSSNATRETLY
Procedure, shortened: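 Membranes from HEK-293 cells expressing human NTSR1 incubated 45 min with 0.02 nM [125I]neurotensin and conjugate in 6-point 3-fold dilutions from 100 or 10 nM; bound radioactivity counted after filtration. IC50 by nonlinear regression, converted to Ki via Cheng–Prusoff using historical ligand Kd.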

[2] = system: HT-29 cells (human colon cancer cells); assay: inhibition of HT29 cell proliferation (Cell Titer Glo 2.0); type: cell-based; conditions: 72 h
Experimental: Conjugates were assessed in an in vitro assay evaluating inhibition of cell proliferation. HT-29 cells (human colon cancer cells) were seeded in white walled 96-well plates at 10,000 cells per well in 100 μl McCoy's 5a (Invitrogen) media supplemented with 10% Fetal Bovine Serum (Invitrogen). After allowing cells to settle overnight, 5 μl of 20× test article was added to each well in replicate and incubated for 72 h. 72 hours after addition of compound, plates were removed from incubator and allowed to cool to room temperature. 50 μl of Cell Titer Glo 2.0 (Promega) was added to each well, incubated for 15 minutes, and plates were read on Glomax luminometer (Promega) using the Cell Titer Glo protocol. Raw luminometer readings for each plate were transformed by dividing the experimental well into the mean of untreated control wells. This is reported as ratio of untreated, and is plotted with Prism 6 software (Graph Pad) and fitted with a 4-parameter, variable slope curve.
Conjugates are assessed for receptor-dependent cytotoxicity by the difference between an NTSR1-targeting conjugate, and the corresponding conjugate with the same linker moiety and active agent where the NTSR1-targeting domain has been scrambled.

[3] = [125I] neurotensin 0.02 nM, membranes from NTSR1 expressing HEK-293 cells, 45 minute incubation, Cheng and Prusoff, read-out: NTSR1 binding Ki

Row | Structure (SMILES) | IC50 ([1]; NTSR1 targeted compound) [nM] | Ki (human NTSR1; [3]) [nM] | IC50 ([2]; NTSR1 targeted compound) [nM] | Ki (human NTSR1) [nM] | IC50 ([1]; NTSR1 scrambled compound) [nM] | IC50 ([2]; NTSR1 scrambled compound) [nM]
1 | COc1cc2cc(c1Cl)N(C)C(=O)C[C@H](OC(=O)[C@H](C)N(C)C(=O)CCSSCCC(=O)NCCCC[C@H](NC(C)=O)C(=O)N1CCC[C@H]1C(=O)N(C)[C@@H](CCCNC(=N)N)C(=O)N[C@@H](CCCNC(=N)N)C(=O)N1CCC[C@H]1C(=O)N[C@@H](Cc1ccc(O)cc1)C(=O)N[C@H](C(=O)N[C@@H](CC(C)C)C(=O)O)C(C)(C)C)[C@]1(C)O[C@H]1[C@H](C)[C@@H]1C[C@@](O)(NC(=O)O1)[C@H](OC)/C=C/C=C(\C)C2 [Compound 13] (Ac-K(Propanoyl(3-SS-DM1))P[NMeR]RPY[Tle]L-OH) | 1.6 | 0.48 | 4.9 |  |  | 
2 | COc1cc2cc(c1Cl)N(C)C(=O)C[C@H](OC(=O)[C@H](C)N(C)C(=O)CCSC1CC(=O)N(CCCNC(=O)CNC(=O)[C@H](CC(C)C)NC(=O)[C@H](Cc3ccccc3)NC(=O)CNC(=O)CCC(=O)NCCCC[C@H](NC(C)=O)C(=O)N3CCC[C@H]3C(=O)N(C)[C@@H](CCCNC(=N)N)C(=O)N[C@@H](CCCNC(=N)N)C(=O)N3CCC[C@H]3C(=O)N[C@@H](Cc3ccc(O)cc3)C(=O)N[C@H](C(=O)N[C@@H](CC(C)C)C(=O)O)C(C)(C)C)C1=O)[C@]1(C)O[C@H]1[C@H](C)[C@@H]1C[C@@](O)(NC(=O)O1)[C@H](OC)/C=C/C=C(\C)C2 (some centres unmarked) [Compound 14] | 2.2 | 0.78 | 17 |  |  | 
3 | COc1cc2cc(c1Cl)N(C)C(=O)C[C@H](OC(=O)[C@H](C)N(C)C(=O)CCSC1CC(=O)N(CCCCCC(=O)NCCCC[C@H](NC(C)=O)C(=O)N3CCC[C@H]3C(=O)N(C)[C@@H](CCCNC(=N)N)C(=O)N[C@@H](CCCNC(=N)N)C(=O)N3CCC[C@H]3C(=O)N[C@@H](Cc3ccc(O)cc3)C(=O)N[C@H](C(=O)N[C@@H](CC(C)C)C(=O)O)C(C)(C)C)C1=O)[C@]1(C)O[C@H]1[C@H](C)[C@@H]1C[C@@](O)(NC(=O)O1)[C@H](OC)/C=C/C=C(\C)C2 (some centres unmarked) [Compound 15] | 70 | 1.08 | 96 |  |  | 
4 | CC[C@H](C)[C@@H]([C@@H](CC(=O)N1CCC[C@H]1[C@H](OC)[C@@H](C)C(=O)N[C@H](C)[C@@H](O)c1ccccc1)OC)N(C)C(=O)[C@@H](NC(=O)[C@H](C(C)C)N(C)C(=O)OCc1ccc(NC(=O)[C@H](CCCNC(N)=O)NC(=O)[C@@H](NC(=O)CCCCCN2C(=O)CC(SC(C)(C)[C@H](NC(C)=O)C(=O)N3CCC[C@H]3C(=O)N[C@@H](CCCNC(=N)N)C(=O)N[C@@H](CCCNC(=N)N)C(=O)N3CCC[C@H]3C(=O)N[C@@H](Cc3ccc(O)cc3)C(=O)N[C@H](C(=O)N[C@@H](CC(C)C)C(=O)O)C(C)(C)C)C2=O)C(C)C)cc1)C(C)C (stereo partly drawn) [Compound 53] (I: Ac-[Pen]PRRPY[Tle]L-OH / II: V[Cit][PABC][NMeV]V[Dil][Dolaproine]-X1; linker I:1-II:N via Hexanoyl(6-succinimido-3yl)) | 17 | 3.15 | 16 |  |  | 
5 | CC[C@H](C)[C@@H]([C@@H](CC(=O)N1CCC[C@H]1[C@H](OC)[C@@H](C)C(=O)N[C@H](C)[C@@H](O)c1ccccc1)OC)N(C)C(=O)[C@@H](NC(=O)[C@H](C(C)C)N(C)C(=O)OCc1ccc(NC(=O)[C@H](CCCNC(N)=O)NC(=O)[C@@H](NC(=O)CCCCCN2C(=O)CC(SCCC(=O)NCCCC[C@H](NC(C)=O)C(=O)N3CCC[C@H]3C(=O)N(C)[C@@H](CCCNC(=N)N)C(=O)N[C@@H](CCCNC(=N)N)C(=O)N3CCC[C@H]3C(=O)N[C@@H](Cc3ccc(O)cc3)C(=O)N[C@H](C(=O)N[C@@H](CC(C)C)C(=O)O)C(C)(C)C)C2=O)C(C)C)cc1)C(C)C (some centres unmarked) [Compound 54] | 22 |  | 6.2 | 1.45 |  | 
6 | CC[C@H](C)[C@@H]([C@@H](CC(=O)N1CCC[C@H]1[C@H](OC)[C@@H](C)C(=O)N[C@H](C)[C@@H](O)c1ccccc1)OC)N(C)C(=O)[C@@H](NC(=O)[C@H](C(C)C)N(C)C(=O)OCCSSC(C)(C)[C@H](NC(C)=O)C(=O)N1CCC[C@H]1C(=O)N[C@@H](CCCNC(=N)N)C(=O)N[C@@H](CCCNC(=N)N)C(=O)N1CCC[C@H]1C(=O)N[C@@H](Cc1ccc(O)cc1)C(=O)N[C@H](C(=O)N[C@@H](CC(C)C)C(=O)O)C(C)(C)C)C(C)C [Compound 55] (Ac-[Pen](MMAE(N-CO2CH2CH2S))PRRPY[Tle]L-OH) | 13 | 1.53 | 1.9 |  |  | 
7 | CC[C@H](C)[C@@H]([C@@H](CC(=O)N1CCC[C@H]1[C@H](OC)[C@@H](C)C(=O)N[C@H](C)[C@@H](O)c1ccccc1)OC)N(C)C(=O)[C@@H](NC(=O)[C@H](C(C)C)N(C)C(=O)OCCSSCCC(=O)NCCCC[C@H](NC(C)=O)C(=O)N1CCC[C@H]1C(=O)N(C)[C@@H](CCCNC(=N)N)C(=O)N[C@@H](CCCNC(=N)N)C(=O)N1CCC[C@H]1C(=O)N[C@@H](Cc1ccc(O)cc1)C(=O)N[C@H](C(=O)N[C@@H](CC(C)C)C(=O)O)C(C)(C)C)C(C)C [Compound 56] | 4.3 | 1.15 | 0.42 |  |  | 
8 | COc1cc2cc(c1Cl)N(C)C(=O)C[C@H](OC(=O)[C@H](C)N(C)C(=O)CCSC1CC(=O)N(CCCNC(=O)CNC(=O)[C@H](CC(C)C)NC(=O)[C@H](Cc3ccccc3)NC(=O)CNC(=O)CCC(=O)NCCCC[C@H](NC(C)=O)C(=O)N3CCC[C@H]3C(=O)N[C@@H](CC(C)C)C(=O)N3CCC[C@H]3C(=O)N(C)[C@@H](CCCNC(=N)N)C(=O)N[C@H](C(=O)N[C@@H](CCCNC(=N)N)C(=O)N[C@@H](Cc3ccc(O)cc3)C(=O)O)C(C)(C)C)C1=O)[C@]1(C)O[C@H]1[C@H](C)[C@@H]1C[C@@](O)(NC(=O)O1)[C@H](OC)/C=C/C=C(\C)C2 (some centres unmarked) [Compound 79] |  | 980 |  |  | 76 | 97
9 | CC[C@H](C)[C@@H]([C@@H](CC(=O)N1CCC[C@H]1[C@H](OC)[C@@H](C)C(=O)N[C@H](C)[C@@H](O)c1ccccc1)OC)N(C)C(=O)[C@@H](NC(=O)[C@H](C(C)C)N(C)C(=O)OCCSSC(C)(C)[C@H](NC(C)=O)C(=O)N1CCC[C@H]1C(=O)N[C@@H](CC(C)C)C(=O)N1CCC[C@H]1C(=O)N[C@@H](CCCNC(=N)N)C(=O)N[C@H](C(=O)N[C@@H](CCCNC(=N)N)C(=O)N[C@@H](Cc1ccc(O)cc1)C(=O)O)C(C)(C)C)C(C)C [Compound 92] |  |  |  |  | 18 | 2.2
